Test results as given in BigSolDB 2.1.

CONC(=O)Nc1ccc(-c2sc3c(c2CN(C)C)c(=O)n(-c2ccc(OC)nn2)c(=O)n3Cc2c(F)cccc2F)cc1
solubility (mole fraction)
Settings | 298.15 K | 303.15 K | 308.15 K | 313.15 K | 318.15 K | 323.15 K
in acetonitrile | 0.000483 | 0.000585 | 0.000667 | 0.000752 | 0.000856 | 0.000999
in ethanol | 0.000134 | 0.000152 | 0.000171 | 0.000209 | 0.00025 | 0.000301
in ethyl acetate | 0.000368 | 0.0004 | 0.00045 | 0.000505 | 0.000539 | 0.000576
in isopropanol | 6.6e-05 | 8.3e-05 | 0.000103 | 0.000125 | 0.000153 | 0.000191
in methanol | 0.000438 | 0.00051 | 0.000578 | 0.000639 | 0.000713 | 0.000774
